{
  "source": "patent US9376425B2",
  "about": "“Heterocyclic compounds as MDM2 inhibitors for the treatment of cancer” (AMGEN INC., priority 2011, dated 2016)",
  "data": [
    {"molecular_target": "T1, human MDM2 (GST-hMDM2 aa 1-188), interaction with biotinylated-p53 (aa 1-83) (Homo sapiens, UniProt Q00987)", "T1 construct": "Amino acid residues 1-188 of human MDM2 were expressed; made in house; host or cells: Escherichia coli", "T1 sequence (Q00987 1-188)": "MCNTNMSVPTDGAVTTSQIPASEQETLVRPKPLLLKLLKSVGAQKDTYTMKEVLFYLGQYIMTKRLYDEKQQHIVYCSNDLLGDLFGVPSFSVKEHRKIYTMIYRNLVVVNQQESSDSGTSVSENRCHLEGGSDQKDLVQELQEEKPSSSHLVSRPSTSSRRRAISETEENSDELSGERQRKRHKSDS", "test": "Homogenous Time-Resolved Fluorescence Assay (HTRF1 assay), inhibition of HDM2-p53 interaction", "type": "binding", "settings": "2.5 nM GST-hMDM2, 5 nM biotinylated-p53, 200 mM KF", "protocol": "Homogenous Time-Resolved Fluorescence Assay (HTRF1 Assay)\nResidues 1-83 of human p53 were expressed as an amino-terminal AviTag™-TrxA-6xHis fusion protein (biotinylated p53) in E. coli. Each protein was purified from cell paste by affinity chromatography.\nSpecifically, 10 uL of GST-hMDM2 was incubated with 10 ul of diluted compound (various concentrations, serially diluted) in 10% DMSO for 20 minutes at room temperature. 20 uL of biotinylated-p53 was added to the GST-hMDM2+ compound mixture, and then incubated at room temperature for 60 min. 10 uL of detection buffer consisting of SA-XLent, anti-GST cryptate antibody and KF was added to GST-hMDM2, biotinylated-p53 and compound reaction and left at room temperature to reach equilibrium for >4 hrs. The final concentration of DMSO in the reaction was 2%. Time-resolved fluorescence readings were measured on a microplate multilabel reader. Percentage of inhibition was calculated relative to nutlin-3.", "units": {"IC50": "nM"}, "values": [
      {"compound": "O=C(O)C[C@@H]1O[C@H](c2cccc(Cl)c2)[C@@H](c2ccc(OC(F)(F)F)cc2)N(CC2CC2)C1=O", "note": "[Example 59, 2-((2S,5R,6R)-6-(3-Chlorophenyl)-4-(cyclopropylmethyl)-3-oxo-5-(4-(trifluoromethoxy)phenyl)morpholin-2-yl)acetic acid]", "IC50": 700},
      {"compound": "O=C(O)C[C@@H]1O[C@H](c2cccc(Cl)c2)[C@@H](c2ccc(Cl)cn2)N(CC2CC2)C1=O", "note": "(single isomer, unassigned) [Example 7]", "IC50": 1100},
      {"compound": "CCCN1C(=O)[C@H](CC(=O)O)O[C@H](c2cccc(Cl)c2)[C@H]1c1ccc(Cl)cc1", "note": "[Example 49, 2-((2S,5R,6R)-6-(3-Chlorophenyl)-5-(4-chlorophenyl)-3-oxo-4-propylmorpholin-2-yl)acetic acid]", "IC50": 600},
      {"compound": "C[C@H](C1CCC1)N1C(=O)[C@H](CC(=O)O)O[C@H](c2cccc(Cl)c2)[C@H]1c1ccc(Cl)cc1", "note": "[Example 21, 2-((2S,5R,6R)-6-(3-Chlorophenyl)-5-(4-chlorophenyl)-4-((R)-1-cyclobutylethyl)-3-oxomorpholin-2-yl)acetic acid]", "IC50": 300},
      {"compound": "O=C(O)C[C@H]1O[C@H](c2cccc(Cl)c2)[C@@H](c2cc3ccccc3[nH]2)N(CC2CC2)C1=O", "note": "(single isomer, unassigned) [Example 1, 2-((2R,5R,6R)-6-(3-Chlorophenyl)-4-(cyclopropylmethyl)-5-(1H-indol-2-yl)-3-oxomorpholin-2-yl)acetic acid or 2-((2S,5R,6R)-6-(3-Chlorophenyl)-4-(cyclopropylmethyl)-5-(1H-indol-2-yl)-3-oxomorpholin-2-yl)acetic acid]", "IC50": 33400},
      {"compound": "O=C(O)/C=C1/O[C@H](c2cccc(Cl)c2)[C@@H](c2ccc(Cl)cc2)N(CC2CC2)C1=O", "note": "(single isomer, unassigned; isomer 2) [Example 52, (E)-2-((5R,6R)-6-(3-Chlorophenyl)-5-(4-chlorophenyl)-4-(cyclopropylmethyl)-3-oxomorpholin-2-ylidene)acetic acid or (Z)-2-((5R,6R)-6-(3-Chlorophenyl)-5-(4-chlorophenyl)-4-(cyclopropylmethyl)-3-oxomorpholin-2-ylidene)acetic acid (Isomer 2)]", "IC50": 19700},
      {"compound": "O=C(O)C[C@H]1OC(c2cccc(Cl)c2)[C@@H](c2ccc(Cl)cn2)N(CC2CC2)C1=O", "note": "(single isomer, unassigned) [Example 8]", "IC50": 1600},
      {"compound": "O=C(O)C[C@H]1O[C@H](c2cccc(Cl)c2)[C@@H](c2ccc(Cl)cc2)N(C2CCC2)C1=O", "note": "[Example 13, 2-((2R,5R,6R)-6-(3-Chlorophenyl)-5-(4-chlorophenyl)-4-cyclobutyl-3-oxomorpholin-2-yl)acetic acid]", "IC50": 700},
      {"compound": "CCC(CC)N1C(=O)[C@H](CC(=O)O)O[C@H](c2cccc(Cl)c2)[C@H]1c1ccc(Cl)cc1", "note": "[Example 53, 2-((2S,5R,6R)-6-(3-Chlorophenyl)-5-(4-chlorophenyl)-3-oxo-4-(pentan-3-yl)morpholin-2-yl)acetic acid]", "IC50": 100},
      {"compound": "Cc1ccc([C@@H]2[C@@H](c3cccc(Cl)c3)O[C@@H](CC(=O)O)C(=O)N2CC2CC2)cc1", "note": "[Example 60, 2-((2S,5R,6R)-6-(3-Chlorophenyl)-4-(cyclopropylmethyl)-3-oxo-5-(p-tolyl)morpholin-2-yl)acetic acid]", "IC50": 700},
      {"compound": "O=C(O)CC1O[C@H](c2cc(F)cc(Cl)c2)[C@@H](c2ccc(Cl)cc2)N(CC2CC2)C1=O", "note": "(single isomer, unassigned) [Example 84]", "IC50": 300},
      {"compound": "O=C(O)CC1O[C@H](c2cccc(Cl)c2)[C@@H](c2ccc(Cl)c(F)c2)N(CC2CC2)C1=O", "note": "(single isomer, unassigned) [Example 78]", "IC50": 800},
      {"compound": "O=C(O)C[C@@H]1O[C@H](c2cccc(Cl)c2)[C@@H](c2ccc(Cl)cc2)N(C2CCCC2)C1=O", "note": "[Example 14, 2-((2S,5R,6R)-6-(3-Chlorophenyl)-5-(4-chlorophenyl)-4-cyclopentyl-3-oxomorpholin-2-yl)acetic acid]", "IC50": 300},
      {"compound": "O=C(O)CC1O[C@H](c2cc(F)cc(F)c2)[C@@H](c2ccc(Cl)cc2)N(CC2CC2)C1=O", "note": "(single isomer, unassigned) [Example 96]", "IC50": 1100},
      {"compound": "O=C(O)C[C@@H]1O[C@H](c2cccc(Cl)c2)[C@@H](c2ccc(Cl)cc2)NC1=O", "note": "[Example 34, 2-((2S,5R,6R)-6-(3-Chlorophenyl)-5-(4-chlorophenyl)-3-oxomorpholin-2-yl)acetic acid]", "IC50": 25000}
    ]},
    {"molecular_target": "T2, human MDM2 (GST-hMDM2 1-188), interaction with biotinylated-p53 (1-83) (Homo sapiens, UniProt Q00987)", "T2 construct": "Amino acid residues 1-188 of human MDM2 were expressed; made in house; host or cells: Escherichia coli", "T2 sequence (Q00987 1-188)": "as above", "test": "improved HTRF assay (HTRF2 assay), inhibition of HDM2-p53 interaction", "type": "binding", "settings": "0.2 nM GST-hMDM2, 0.5 nM biotinylated-p53, 100 mM KF", "summary_of_the_method": "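GST-hMDM2 preincubated 20 min at RT with serially diluted compound, then biotinylated p53 (1-83, E. coli) added for 60 min. Detection with SA-XLent, anti-GST cryptate and KF, equilibrated >4 h; final DMSO 2%. TR-FRET read; % inhibition calculated relative to nutlin-3.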", "units": {"IC50": "nM"}, "values": [
      {"compound": "O=C(O)C[C@H]1O[C@H](c2cccc(Cl)c2)[C@@H](c2ccc(Cl)cc2)N([C@H](CN(c2cc(F)ccc2F)S(=O)(=O)C2CC2)C2CC2)C1=O", "note": "(single isomer, unassigned) [Example 275, 2-((2R,5R,6R)-6-(3-Chlorophenyl)-5-(4-chlorophenyl)-4-((S)-1-cyclopropyl-2-(N-(2,5-difluorophenyl)cyclopropanesulfonamido)ethyl)-3-oxomorpholin-2-yl)acetic acid or 2-((2S,5R,6R)-6-(3-chlorophenyl)-5-(4-chlorophenyl)-4-((S)-1-cyclopropyl-2-(N-(2,5-difluorophenyl)cyclopropanesulfonamido)ethyl)-3-oxomorpholin-2-yl)acetic acid]", "IC50": "< 1"},
      {"compound": "CC[C@@H](CN(c1ccccc1F)S(=O)(=O)C1CC1)N1C(=O)[C@@H](CC(N)=O)O[C@H](c2cccc(Cl)c2)[C@H]1c1ccc(Cl)cc1", "note": "(single isomer, unassigned) [Example 242, 2-((2R,5R,6R)-6-(3-chlorophenyl)-5-(4-chlorophenyl)-4-((S)-1-(N-(2-fluorophenyl)cyclopropanesulfonamido)butan-2-yl)-3-oxomorpholin-2-yl)acetamide or 2-((2S,5R,6R)-6-(3-chlorophenyl)-5-(4-chlorophenyl)-4-((S)-1-(N-(2-fluorophenyl)cyclopropanesulfonamido)butan-2-yl)-3-oxomorpholin-2-yl)acetamide]", "IC50": 2},
      {"compound": "CNC(=O)C[C@H]1O[C@H](c2cccc(Cl)c2)[C@@H](c2ccc(Cl)cc2)N([C@@H](C)CS(=O)(=O)C(C)(C)C)C1=O", "note": "(single isomer, unassigned) [Example 228, 2-((2R,5R,6R)-4-((S)-1-(tert-butylsulfonyl)propan-2-yl)-6-(3-chlorophenyl)-5-(4-chlorophenyl)-3-oxomorpholin-2-yl)-N-methylacetamide or 2-((2S,5R,6R)-4-((S)-1-(tert-butylsulfonyl)propan-2-yl)-6-(3-chlorophenyl)-5-(4-chlorophenyl)-3-oxomorpholin-2-yl)-N-methylacetamide]", "IC50": 14},
      {"compound": "CC[C@@H](CS(=O)(=O)C(C)(C)C)N1C(=O)[C@@H](CC#N)O[C@H](c2cccc(Cl)c2)[C@H]1c1ccc(Cl)cc1", "note": "[Example 381, 2-((2R,5R,6R)-4-((S)-1-(tert-Butylsulfonyl)butan-2-yl)-6-(3-chlorophenyl)-5-(4-chlorophenyl)-3-oxomorpholin-2-yl)acetonitrile]", "IC50": 66},
      {"compound": "CC(C)(C)S(=O)(=O)C[C@H](C1CC1)N1C(=O)[C@@H](CC(=O)Nc2ccccc2)O[C@H](c2cccc(Cl)c2)[C@H]1c1ccc(Cl)cc1", "note": "(single isomer, unassigned) [Example 351, 2-((2R,5R,6R)-4-((S)-2-(tert-Butylsulfonyl)-1-cyclopropylethyl)-6-(3-chlorophenyl)-5-(4-chlorophenyl)-3-oxomorpholin-2-yl)-N-phenylacetamide or 2-((2S,5R,6R)-4-((S)-2-(tert-butylsulfonyl)-1-cyclopropylethyl)-6-(3-chlorophenyl)-5-(4-chlorophenyl)-3-oxomorpholin-2-yl)-N-phenylacetamide]", "IC50": 4},
      {"compound": "CNC(=O)C[C@@H]1O[C@H](c2cccc(Cl)c2)[C@@H](c2ccc(Cl)cc2)N([C@@H](C)CS(=O)(=O)C(C)(C)C)C1=O", "note": "(single isomer, unassigned) [Example 227, 2-((2S,5R,6R)-4-((S)-1-(tert-butylsulfonyl)propan-2-yl)-6-(3-chlorophenyl)-5-(4-chlorophenyl)-3-oxomorpholin-2-yl)-N-methylacetamide or 2-((2R,5R,6R)-4-((S)-1-(tert-butylsulfonyl)propan-2-yl)-6-(3-chlorophenyl)-5-(4-chlorophenyl)-3-oxomorpholin-2-yl)-N-methylacetamide]", "IC50": 11},
      {"compound": "CC[C@@H](CS(=O)(=O)C(C)(C)C)N1C(=O)[C@@H](CC(N)=O)O[C@H](c2cccc(Cl)c2)[C@H]1c1ccc(Cl)cc1", "note": "(single isomer, unassigned) [Example 261, 2-((2R,5R,6R)-4-((S)-1-(tert-butylsulfonyl)butan-2-yl)-6-(3-chlorophenyl)-5-(4-chlorophenyl)-3-oxomorpholin-2-yl)acetamide or 2-((2S,5R,6R)-4-((S)-1-(tert-butylsulfonyl)butan-2-yl)-6-(3-chlorophenyl)-5-(4-chlorophenyl)-3-oxomorpholin-2-yl)acetamide]", "IC50": 6},
      {"compound": "CC[C@@H](CS(=O)(=O)[C@H](C)C(C)C)N1C(=O)[C@H](CC(=O)O)O[C@H](c2cccc(Cl)c2)[C@H]1c1ccc(Cl)cc1", "note": "(single isomer, unassigned) [Example 283]", "IC50": 3}
    ]}
  ]
}
